Data set [1] relates to mouse sensory neurons activated by capsaicin. Description: Calcium flux in sensory neurons activated by capsaicin (TRPV1 agonist). In kind it is cell-based. The protocol:
(§1) FIG. 4: C12-Asn-GABA inhibits neuronal activation via the GABA B receptor. Amplitude of intracellular calcium mobilization (ΔF/F; right panel) in mouse sensory neurons and percentage of responding neurons (left panel) pretreated with increasing amounts of C12-Asn-GABA (black circle) or vehicle (HBSS; white circle) and treated with capsaicin (125 nM; A) or a mix of G protein coupled receptor agonists (histamine, serotonin and bradykinin 10 μM each; B). Data are represented as mean±SEM; n=4 independent experiments of 3 wells per condition and 30-80 neurons per well. […] Percentage of responding neurons pretreated with increasing amounts of saclofen (black circle) or vehicle (HBSS; white circle) and treated with C12-Asn-GABA (10 μM) and capsaicin (125 nM; C) or a mix of G protein coupled receptor agonist (histamine, serotonin and bradykinin 10 μM each; D). Data are represented as mean±SEM; n=4 independent experiments of 3 wells per condition and 30-80 neurons per well.
FIG. 7: C14-Asn-GABA inhibits neuronal activation by capsaicin. Amplitude of intracellular calcium mobilization (F/F; A) in mouse sensory neurons and percentage of responding neurons (B) pretreated with 10 μM of C14-Asn-GABA (black bar) or vehicle (HBSS; white bar) and treated with capsaicin (125 nM). Data are represented as mean±SEM; n=3 independent experiments of 3 wells per condition and 35-82 neurons per well.
(§2) Male C57B16 mice (6-8 weeks) were used to produce primary cultures of dorsal root ganglia (DRG) sensory neurons for calcium flux experiments, and to perform studies of colorectal distention and intestinal isotonic contraction. All procedures were approved by Institutional Animal Care Committees (CEEA 122).
To determine whether C12-Asn-GABA or C12-Asn-BABA is capable of signaling to sensory nerves, calcium mobilization studies were performed on primary cultures of mouse dorsal root ganglia (DRG) neurons. […]

Data set [2] concerns mouse dorsal root ganglia (DRG) neurons. Description: Calcium mobilization in primary DRG sensory neurons, basal (unstimulated). In kind it is cell-based. The following applies: 10 μM. The protocol:
as §2
To determine whether C12-Asn-GABA or C12-Asn-BABA is capable of signaling to sensory nerves, calcium mobilization studies were performed on primary cultures of mouse dorsal root ganglia (DRG) neurons. […] The same experiments were thereafter performed in neurons activated by either an agonist of the receptor calcium channel TRPV1 (capsaicin) or by a mix of agonists (histamine, serotonin and bradykinin) for G protein coupled receptors (GPCR) implicated in visceral hypersensitivity. Exposure of neurons to either capsaicin (125 nM) or the mix of GPCR agonists (histamine, bradykinin, serotonin, 10 μM each) induced an increase in calcium flux as shown by the higher % of responding neurons and amplitude of the response (ΔF/F) compared to the vehicle (FIG. 4A, 4B). […] To investigate whether the inhibitory effect of C12-Asn-GABA was associated to the GABA residue, neurons were treated with saclofen (10, 50, and 100 μM), a competitive antagonist of the GABAB receptor. […]

Data set [3] deals with mouse sensory neurons activated by mix of GPCR agonists (histamine, serotonin, bradykinin). The data set can be described thus: Calcium flux in sensory neurons activated by mix of GPCR agonists. Format: cell-based. The following applies: serotonin 10 μM each, pretreatment with increasing amounts of compound. The protocol: as §1
Male C57B16 mice (6-8 weeks) were used to produce primary cultures of dorsal root ganglia (DRG) sensory neurons for calcium flux experiments, and to perform studies of colorectal distention and intestinal isotonic contraction. All procedures were approved by Institutional Animal Care Committees (CEEA 122). […]
(In general: Calcium assays in cells follow changes in intracellular calcium, usually with a dye or a luminescent sensor.)

The subject of data set [4] is capsaicin-induced visceral hypersensitivity. The data set can be described thus: Capsaicin-induced visceral hypersensitivity, visceromotor response to colorectal distension. Conditions: oral 25 mg/kg, 4 hours before intracolonic capsaicin 100 μg/mouse. Format: in vivo, mouse. The protocol:
FIG. 6: C12-Asn-GABA inhibits capsaicin-induced visceral hypersensitivity without altering Intestinal contraction. Mice received intracolonic administration of C12-Asn-GABA (10 μM; black symbols) or vehicle (40% ethanol; white symbols) and 30 minutes or 4 hours later colon (A) and blood (B) were harvested in order to quantify C12-Asn-GABA by LC-MS/MS. Data are expressed as mean±SEM, n=8 mice per group. […] Mice received intracolonic administration of C12-Asn-GABA (10 μM; black symbols) or vehicle (40% ethanol; white symbols) and 30 minutes or 4 hours later an intracolonic administration of capsaicin (100 μg/mouse; square) or its vehicle (40% ethanol; circle). Fifteen minutes after capsaicin or vehicle treatment, visceromotor response (VMR) to increasing pressures of colorectal distension was performed. Data are expressed as mean±SEM, n=7-8 mice per group. […] Ex vivo measurement of duodenal mechanical contraction frequency (B) and amplitude (C) in response to Krebs-Ringer solution (control; white bar), to DMSO 0.2% (vehicle; gray bar) or to C12-Asn-GABA (10 μM; black bar). Data are expressed as mean±SEM, n=5-6 per group. Statistical analysis was performed using Kruskal-Wallis analysis of variance and subsequent Dunn's post hoc test.
FIG. 8: Trimebutine maleate has no effect on capsaicin-induced visceral hypersensitivity. Mice received an oral treatment with vehicle (PEG200, white circle) or with trimebutine maleate (25 mg/kg, black circle) and 4 hours later an intracolonic administration of capsaicin (100 μg/mouse; black and white circle). Fifteen minutes after capsaicin, visceromotor response (VMR) to increasing pressures of colorectal distension was performed. Data are expressed as mean±SEM, n=7-8 mice per group. […]
In a first set of experiment, we assessed the ability of the C12-Asn-GABA to cross the epithelial barrier, in vivo. […] The impact of C12-Asn-GABA on visceral hypersensitivity was assessed by measuring the visceromotor responses (VMR) to colorectal distension (CRD). […]

A further data set deals with Caco-2 cells. The data set can be described thus: Absorption across Caco-2 monolayer in transwell chambers. In kind it is in vitro ADME, human. The following applies: 800 ng apical, 24 h, LC-HRMS. The protocol: FIG. 5: C12-Asn-GABA crosses the epithelial barrier without modifying epithelial cells physiology. Caco-2 cells were cultivated into transwell chambers. After treatment with C12-Asn-GABA (800 ng) at the apical side, C12-Asn-GABA was quantified inside the cells and both the apical and basolateral compartments by LC-MS/MS (A); data are represented as mean±SEM, n=3 experiments of 3 wells per condition. Extracted ion chromatogram at the exact mass of GABA (104.0702 m/z) with a mass accuracy of 5 ppm of the GABA commercial standard (GABA (Std.) and apical and basolateral compartments after loading or not Caco-2 cells with 800 ng of GABA at the apical site (B); representation of one well, n=3 experiments of 3 wells per condition. Paracellular permeability assessed by the passage of FITC-dextran loaded at the apical side (C) and CXCL8 secretion assessed by ELISA (D) were monitored after treatment of Caco-2 cells at the apical side with C12-Asn-GABA (10 μM); data are represented as mean±SEM, n=3 experiments of 3 wells per condition. […]
Caco-2 cells were grown in Glutamax DMEM (Gibco, Invitrogen life technologies, Paisley, UK) supplemented with 10% heat-inactivated fetal bovine serum (FBS) (Gibco, Invitrogen life technologies, Paisley, UK), 1% nonessential amino acids and 1% antibiotics (100 U/ml penicillin and […] streptomycin (Gibco, Invitrogen life technologies, Grand Island, N.Y., USA) at 37° C. in a 5% C02 water-saturated atmosphere. Cells were seeded on Transwell inserts (Costar, Sigma-Aldrich, Saint-Quentin Fallavier, France) and absorption studies of C12-Asn-GABA and GABA were performed 16 days later. These compounds were quantified by LC-MS/MS in both apical and basolateral chambers as well as in cells. The effect of C12-Asn-GABA (1-100 μM) on paracellular permeability was also measured by mucosal-to-serosal flux of 4 kDa Fluorescein Isothiocyanate (FITC)-labelled dextran as previously described^31. […]
The initial barrier for any drug absorption is the intestinal epithelial cell wall. […] The transport of GABA alone across the cell monolayer was also assessed. […]

As to `CCCCCCCCCCCCCC(=O)NC(CC(N)=O)C(=O)NCCCC(=O)O` (stereo not drawn) [C14-Asn-GABA], the “calcium flux increase induced by capsaicin (amplitude, % responding neurons)” value in data set [1] (10 μM, pre-treated 5 minutes before capsaicin 125 nM) was “prevented by C14-Asn-GABA pretreatment”.

With `CCCCCCCCCCCC(=O)N[C@@H](CC(N)=O)C(=O)NC(C)CC(=O)O` (stereo partly drawn) [C12-Asn-BABA, C12-Asn-β-aminobutyric], the “calcium mobilization under basal (unstimulated) conditions” value in data set [2] was “None of the isomers (10 μM) induced calcium mobilization”. The “calcium flux increase induced by capsaicin (% responding neurons, amplitude ΔF/F)” value in data set [1] (capsaicin 125 nM, pretreatment with increasing amounts of compound) is recorded as “had no effect”. The “calcium flux increase induced by mix of GPCR agonists (% responding neurons, amplitude ΔF/F)” value in data set [3] is listed as “had no effect”.

Consider “trimebutine maleate [reference compound]”, for which the “hypersensitivity induced by capsaicin (VMR to CRD)” value in data set [4] was “has no effect”.

In the case of `NCCCC(=O)O` [GABA, gamma-Aminobutyric acid, reference compound], the “presence in the basal chamber” value with Caco-2 cells is reported as “not detected”.

For the origin of these results see patent publication US11912645B2, “Lipopeptide compounds for the treatment of pain disorders” (INSERM (Institut National de la Santé et de la Recherche …, priority 2017, dated 2024).
